We go through 28 compounds from US20100137309A1, “FUNGICIDES PHENYL-PYRIMIDNYL-AMINO DERIVATIVES” (priority 2007, published 2010).

Molecules are shown by their SMILES.

Test system in the first series: not listed separately
Nature of the series: Log p of the compounds of Table A.
Conditions: not given
In turn, `O=C(NCCCN1CCCCCC1=O)c1cc(-c2ccnc(Nc3cccc(Cl)c3)n2)ccn1` [Compound A1, 4-{2-[(3-chlorophenyl)amino]pyrimidin-4-yl}-N-[3-(2-oxoazepan-1-yl)propyl]pyridine-2-carboxamide] returned a logP of 2.98.

Regarding `CC(C)CCNC(=O)c1cc(-c2ccnc(Nc3cccc(Cl)c3)n2)ccn1` [Compound A19, 4-{2-[(3-chlorophenyl)amino]pyrimidin-4-yl}-N-(3-methylbutyl)pyridine-2-carboxamide], the lipophilicity (logP) stood at 4.7.

The same series, now with this note: Table A.
In turn, `CC(CN(C)C)NC(=O)c1cc(-c2ccnc(Nc3cccc(Cl)c3)n2)ccn1` (stereo not shown) [Compound A38] came in with a Log p of 1.81.

`COCCCNC(=O)c1cc(-c2ccnc(Nc3cccc(Cl)c3)n2)ccn1` [Compound A39] registered a Log p of 3.31.

For the compound `O=C(NC1CCCC1)c1cc(-c2ccnc(Nc3cccc(Cl)c3)n2)ccn1` [Compound A40], the Log p amounted to 4.48.

Compound `CCC(CC)NC(=O)c1cc(-c2ccnc(Nc3cccc(Cl)c3)n2)ccn1` [Compound A44] registered a Log p of 4.72.

`CCC(COC)NC(=O)c1cc(-c2ccnc(Nc3cccc(Cl)c3)n2)ccn1` (stereo not shown) [Compound A45] registered a Log p of 4.02.

The compound `CCC(C)NC(=O)c1cc(-c2ccnc(Nc3cccc(Cl)c3)n2)ccn1` (stereo not shown) [Compound A46] showed a Log p of 4.3.

For the compound `O=C(NC1CCC1)c1cc(-c2ccnc(Nc3cccc(Cl)c3)n2)ccn1` [Compound A47], the Log p amounted to 4.1.

Take `CCCNC(=O)c1cc(-c2ccnc(Nc3cccc(Cl)c3)n2)ccn1` [Compound A56]: the Log p is given as 3.8.

The compound `CC(C)NC(=O)c1cc(-c2ccnc(Nc3cccc(Cl)c3)n2)ccn1` [Compound A57] gave a Log p of 3.83.

For the compound `CCCCNC(=O)c1cc(-c2ccnc(Nc3cccc(Cl)c3)n2)ccn1` [Compound A58], the Log p was found to be 4.31.

`CNC(=O)c1cc(-c2ccnc(Nc3cccc(Cl)c3)n2)ccn1` [Compound A59] yielded a Log p of 2.94.

`O=C(NC1CCS(=O)(=O)C1)c1cc(-c2ccnc(Nc3cccc(Cl)c3)n2)ccn1` (stereo not shown) [Compound A60] gave a Log p of 2.8.

As for `CCOC1CCC(NC(=O)c2cc(-c3ccnc(Nc4cccc(Cl)c4)n3)ccn2)CC1` (stereo not shown) [Compound A61], the Log p turned out to be 4.54.

Test system in a further series: not listed separately
Nature of the series: Log p of the compounds of Table A.
Conditions: not given
The source holds these as a separate data set.
`CC(C)N(C)C(=O)c1cc(-c2ccnc(Nc3ccc(N4CCCC4=O)cc3)n2)ccn1` [Compound A325]: the Log p came out at 2.04.

A further series has as its system Sphaerotheca fuliginea. Kind of series: In vivo test on Sphaerotheca fuliginea (cucurbits powdery mildew), DMF/emulsifier preparation (Example B). The note with it: 500 ppm; young cucurbit plants sprayed preventively one day before inoculation; grading 7 days after contamination. Here is the method:
In Vivo Test on Sphaerotheca fuliginea (Cucurbits Powdery Mildew) To produce a suitable preparation of active compound, 1 part by weight of active compound is mixed with 49 parts by weight of solvent (N,N-dimethylformamide) and 1 part by weight of emulsifier (alkylarylpolyglycolether), and the concentrate is diluted with water to the desired concentration. To test for preventive activity, young cucurbit plants are sprayed with the preparation of active compound at the stated rate of application. One day after this treatment, the plants are inoculated with an aqueous spore suspension of Sphaerotheca fuliginea. […] Grading is carried out 7 days after the contamination, in comparison with the control plants. […] A16.
On to `COCCOC(=O)c1cc(-c2ccnc(Nc3cccc(OC)c3)n2)ccn1` [Compound A16], for which the good protection entry is “at least 70%”.

Test system in a further series: not listed separately
Kind of series: Log p of the compounds of Table A.
Conditions: not given
This is another data set of the same source.
For the compound `CN(C)C(=O)c1cc(-c2ccnc(Nc3cccc(Cl)c3)n2)ccn1` [Compound A76, 4-{2-[(3-chlorophenyl)amino]pyrimidin-4-yl}-N,N-dimethylpyridine-2-carboxamide], the log partition coefficient (logP) was 2.5.

For the compound `CCN(CC)C(=O)c1cc(-c2ccnc(Nc3cccc(Cl)c3)n2)ccn1` [Compound A77, 4-{2-[(3-chlorophenyl)amino]pyrimidin-4-yl}-N,N-diethylpyridine-2-carboxamide], the log partition coefficient (logP) is 3.19.

With `CON=C(C)c1cc(-c2ccnc(Nc3cccc(Cl)c3)n2)ccn1` [Compound A93, N-(3-chlorophenyl)-4-{2-[-N-methoxyethanimidoyl]pyridin-4-yl}pyrimidin-2-amine], the logP turned out to be 4.46.

In turn, `CC(=NNCCC#N)c1cc(-c2ccnc(Nc3cccc(Cl)c3)n2)ccn1` [Compound A108, 3-{2-[1-(4-{2-[(3-chlorophenyl)amino]pyrimidin-4-yl}pyridin-2-yl)ethylidene]hydrazinyl}propanenitrile] registered a logP of 2.44.

Turning to `CC(=O)c1cc(-c2ccnc(Nc3cccc(Cl)c3)n2)ccn1` [Compound A110, 1-(4-{2-[(3-chlorophenyl)amino]pyrimidin-4-yl}pyridin-2-yl)ethanone], the logP is 3.5.

Test system in another series: not listed separately
Kind of series: Log p determination of the compounds of Table A.
Conditions: not given
Take `CCN(CC)C(=S)c1cc(-c2ccnc(Nc3cccc(Cl)c3)n2)ccn1` [Compound A391, 4-{2-[(3-chlorophenyl)amino]pyrimidin-4-yl}-N,N-diethylpyridine-2-carbothioamide]: the logP worked out at 3.19.

Test system in another series: not listed separately
Kind of series: Log p of the compounds of Table A.
Conditions: not given
The source holds these as a separate data set.
For `COCCN(C)C(=O)c1cc(-c2ccnc(Nc3cc(F)ccc3F)n2)ccn1` [Compound A230], the Log p was 2.52.

Consider `CCN(C)C(=O)c1cc(-c2ccnc(Nc3cc(Cl)ccc3F)n2)ccn1` [Compound A232], for which the Log p is on record as 2.94.

In turn, `CCCN(CC)C(=O)c1cc(-c2ccnc(Nc3cc(Cl)ccc3F)n2)ccn1` [Compound A234] yielded a Log p of 3.69.

Take `CCCN(CC1CC1)C(=O)c1cc(-c2ccnc(Nc3cc(Cl)ccc3F)n2)ccn1` [Compound A242]: the Log p is on record as 4.20.

Turning to `CCCCN(C)C(=O)c1cc(-c2ccnc(Nc3cccc(C(C)C)c3)n2)ccn1` [Compound A262], the Log p worked out at 4.04.
